Like-named read-outs stand apart in the source and are kept apart here.
Key:
KDO1 = molecular target: T1, KDO1 (Catenulispora acidiphila, UniProt C7QJ42); assay type: binding; conditions: active site
T1 construct: gene Caci_0231; hexa-histidine tail (pET-22b(+)), E. coli BL21(DE3); dimer in solution; first ordered residue Glu30
T1 sequence (C7QJ42 1-358): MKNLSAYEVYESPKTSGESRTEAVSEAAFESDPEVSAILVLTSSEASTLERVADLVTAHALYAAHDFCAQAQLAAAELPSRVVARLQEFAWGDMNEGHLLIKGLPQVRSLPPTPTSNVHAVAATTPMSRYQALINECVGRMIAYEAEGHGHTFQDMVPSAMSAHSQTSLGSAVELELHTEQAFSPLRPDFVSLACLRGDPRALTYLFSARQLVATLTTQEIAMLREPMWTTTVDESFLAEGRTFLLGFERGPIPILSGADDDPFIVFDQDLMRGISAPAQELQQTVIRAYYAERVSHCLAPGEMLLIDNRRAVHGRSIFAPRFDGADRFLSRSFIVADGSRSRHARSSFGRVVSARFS

KDO5 = molecular target: T2, KDO5 (Flavobacterium sp. CF136, UniProt J3BZS6); test: X-ray crystal structure (soak); assay type: binding; conditions: active site
T2 construct: gene PMI10_03368; hexa-histidine tail (pET-22b(+)), E. coli BL21(DE3); tetramer in solution; first ordered residue Ala13

[1] = molecular target: the molecule itself; test: SEC; analytic gel filtration on Superdex 200 Increase 10/300 GL, 100 µL purified protein, 50 mM Tris-HCl pH 8.0, 50 mM NaCl, 10% glycerol, 0.3 ml/min; oligomeric state from elution volume against a calibration curve; data not shown
[2] = FeSO4/dithionite soak, monomer C

Molecule: NCCC[C@H](O)[C@H](N)C(=O)O [(3S)-3-hydroxy-L-lysine]
- X-ray crystal structure (soak) (KDO1; FeSO4/dithionite soak with succinate, monomer B): The (3S)-3-hydroxy-L-lysine makes salt bridges with Glu180

Molecule: NCCCC[C@H](N)C(=O)O [L-lysine]
- X-ray crystal structure (soak) (KDO5; [2]): the carboxylate of L-lysine substrate is stabilized by salt bridges with the Arg338
- X-ray crystal structure (soak) (KDO1; [2]): In KDO1, the L-lysine complex shows a well ordered lysine in monomer C

Molecule: O=C(O)CCC(=O)O [succinate]
- X-ray crystal structure (soak) (KDO5; crystals soaked with L-lysine and α-ketoglutarate, FeSO4/dithionite, monomer D): The succinate resultant from the oxidative decarboxylation of the α-KG, makes H-bond Tyr193

Molecule: O=C(O)CCC(=O)C(=O)O [α-KG]
- X-ray crystal structure (soak) (KDO5; FeSO4/dithionite soak, bidentate to iron, monomer A): In α-KG bound structure, α-KG is best defined for monomer A
- X-ray crystal structure (soak) (KDO1; FeSO4/dithionite soak, bidentate to iron, monomer B): In the α-KG crystals, the structure shows a well ordered α-KG in monomer B

B1: KDO5 from Flavobacterium sp. (L-lysine dioxygenase, C-4 regioselective) (enzyme, UniProt J3BZS6 1-372, looked up)
chain: MKSQSIMSVERSAETSLTLEIPTSPLIIKITQQERNILSNVGNLLVKAFGNYENPDYIASLHLHAFQLLPERITRILSQFGSDFSAEQYGAIVFQGLIEVDQDDLGPTPPNWQGADYGKLNKYGFICSLLHGAVPSKPVQYYAQRKGGGLLHAVIPDEKMAATQTGSGSKTDLFVHTEDAFLSNQADFLSFLYLRNEERVPSTLYSIRSHGKMNPVMKKLFEPIYQCPKDANYNDEDVANSGPTASVLYGNRELPFIRFDAAEQIFNENAGQTSEALGNLMDFWDEAKTLINSDYIPNSGDLIFVNNHLCAHGRSAFIAGQRIENGEIIKCERRQMLRMMSKTSLIHIRSVTRTDDPYFIMEEHLGKIFDLD
notes: KDO5, iron(II)/alpha-ketoacid-dependent lysine dioxygenase of Flavobacterium sp; Cloned into pET-22b(+) with a hexa-histidine tail; Tetramer in solution; four molecules (two dimers) in the asymmetric unit; First ordered residue in the crystals is Ala13; also called K DiOxygenase 5; source: E. coli BL21(DE3), purified (Ni-NTA)
- stoichiometry N [1]: 4

B2: KDO1 from Catenulispora acidiphila (L-lysine dioxygenase, C-3 regioselective) (enzyme, UniProt C7QJ42 1-358, looked up)
chain: MKNLSAYEVYESPKTSGESRTEAVSEAAFESDPEVSAILVLTSSEASTLERVADLVTAHALYAAHDFCAQAQLAAAELPSRVVARLQEFAWGDMNEGHLLIKGLPQVRSLPPTPTSNVHAVAATTPMSRYQALINECVGRMIAYEAEGHGHTFQDMVPSAMSAHSQTSLGSAVELELHTEQAFSPLRPDFVSLACLRGDPRALTYLFSARQLVATLTTQEIAMLREPMWTTTVDESFLAEGRTFLLGFERGPIPILSGADDDPFIVFDQDLMRGISAPAQELQQTVIRAYYAERVSHCLAPGEMLLIDNRRAVHGRSIFAPRFDGADRFLSRSFIVADGSRSRHARSSFGRVVSARFS
notes: KDO1, iron(II)/alpha-ketoacid-dependent lysine dioxygenase of Catenulispora acidiphila; Cloned into pET-22b(+) with a hexa-histidine tail; Dimer in solution; four molecules (two dimers) in the asymmetric unit; First ordered residue in the crystals is Glu30; also called K DiOxygenase 1; source: E. coli BL21(DE3), purified (Ni-NTA)
- stoichiometry N [1]: 2

— paper PMC6224419, “Structural Studies based on two Lysine Dioxygenases with Distinct Regioselectivity Brings Insights Into Enzyme Specificity within the Clavaminate Synthase-Like Family” (Scientific Reports, 2018)
